Source: article PMC12837263, “β,β-Dimethylacrylalkannin Restores Colistin Efficacy Against mcr- and TCS-Mediated Resistant Gram-Negative Bacteria via Membrane Disturbance” (Antibiotics, 2025)

What was measured:
[1] = Cytotoxicity (CCK-8); type: cell-based; conditions: human, HK-2 cells and HepG2 cells; HK-2 and HepG2, 24 h; selection criterion
Method: Toxicity assessment was performed by using sheep blood cells, human renal proximal tubular epithelial HK-2, and human hepatocarcinoma HepG2. Briefly, 8% erythrocyte suspensions were incubated with the test compounds (0–250 µM) for 1 h at 37 °C. After centrifugation, supernatants were transferred to a 96-well plate, and absorbance was measured at 570 nm.
The HepG2 and HK-2 cells (10^4 cells/well) were cultured in DMEM medium containing 10% fetal bovine serum (FBS) and then placed in a 5% CO2 incubator for 24 h. The culture medium was replaced with fresh DMEM medium containing the compounds (0–250 µM), followed by a further 24 h incubation. Subsequently, 10 µL of CCK-8 was added and incubated for 1 h, and OD450nm values were measured.Hemolysis% = [OD570nm(drug) − OD570nm(blank)]/[OD570nm(TritonX−100) − OD570nm(blank)] × 100%Cell viability% = [OD450nm(drug) − OD450nm(blank)]/[OD450nm(negative) − OD450nm(blank)] × 100%

[2] = test system: S. aureus ATCC 29213; test: Membrane permeability (PI); type: cell-based; conditions: β,β-Dim 0–32 µg/mL, 1 h
Method: The S. aureus ATCC 29213 bacterial suspension (OD600 = 0.5) was incubated with fluorescent probe propidium iodide (PI, Cat No. C1008S, Beyotime, Shanghai, China, final concentration 10 µM) for 30 min. Then, β,β-Dim (0–32 µg/mL) was added to the PI-labeled suspension in a black 96-well plate and incubated for 1 h. Fluorescence intensity was measured at an excitation/emission wavelength of 535/615 nm. The cytoplasmic membrane permeability of E. coli BW25113, E. coli BW25113-mcr-1, and E. coli BW25113-pmrBR93P induced by β,β-Dim was assessed by preparing spheroplasts.

[3] = test system: E. coli BW25113, E. coli BW25113-mcr-1, and E. coli BW25113-pmrBR93P; test: Intracellular β,β-Dim content (HPLC-MS/MS); type: cell-based; conditions: β,β-Dim 16 μg/mL with colistin 0–1 × MIC; three E. coli strains
Method: Overnight cultures E. coli BW25113, E. coli BW25113-mcr-1, and E. coli 1 BW25113-pmrBR93P were diluted to 10^8 CFU/mL and then co-incubated with colistin (0.5 × MIC) in the presence of β,β-Dim (0–4 μg/mL) for 30 min at 37 °C. The cultures were centrifuged and resuspended in 30% methanol. Bacteria were disrupted by sonication and centrifugation, supernatants were diluted in 20% acetonitrile, and intracellular colistin was quantified via HPLC-MS/MS (TQ-XS, Waters, Milford, MA, USA). Analyses were performed on a CORTECS Shield RP C18 column (Waters, Milford, MA, USA) at 40 °C, with a flow rate of 0.4 mL/min and an injection volume of 5 μL. The mobile phases consisted of solvent A (0.5% formic acid and acetonitrile in water) and solvent B (0.5% formic acid in water). Colistin was detected in positive ESI mode with ion transitions […] and m/z 386.0 > 101.0. […] Mobile phases included solvent A (acetonitrile) and solvent B (water). β,β-Dim was detected in the negative electrospray ionization (ESI) mode with ion transitions m/z 369.1 > 269.0 and m/z 369.1 > 241.0.

[4] = test system: six susceptible strains; test: Checkerboard assay, six susceptible strains (summary); type: cell-based; conditions: with β,β-Dim
Method: The FICI of β,β-Dim–colistin combination was determined by a checkerboard assay. Briefly, two-fold serial dilutions of β,β-Dim and colistin were prepared in a 96-well plate. After incubation at 37 °C for 18 h with bacterial suspension (10^6 CFU/mL), OD600 values were measured. FICI = (MICβ,β-Dim in combination/MICβ,β-Dim) + (MICcolistin in combination/MICcolistin). The synergistic effect of β,β-Dim with other antibiotics was measured in the same way. Synergy was considered to be an FICI ≤ 0.5.

[5] = test system: K. pneumoniae 667; test: Murine systemic (abdominal) infection model; type: in vivo; conditions: mice
Method: Mice were randomly assigned to five groups (n = 10) and infected intraperitoneally with K. pneumoniae 667 (8 × 10^6 CFUs). One hour post-infection, treatments were administered intraperitoneally: PBS, β,β-Dim (2 mg/kg), colistin (0.2 mg/kg), or β,β-Dim combined with colistin (2 + 0.2 mg/kg). Survival was continuously monitored. Upon death, the heart, liver, spleen, lungs, and kidney were immediately collected. At five days post-infection, surviving mice were euthanized, and the same organs were harvested. Half of each organ was weighed, homogenized, diluted, and plated on LA plates for bacterial colony enumeration. The remaining tissue samples were used for histopathological analysis.

Question: What does the source list for CC(C)=CC[C@H](OC(=O)C=C(C)C)C1=CC(=O)c2c(O)ccc(O)c2C1=O [β,β-Dim, β,β-dimethylacrylalkannin]?
Answer: IC50 at 24 h [1]: > 10 µM; membrane permeability (PI fluorescence intensity) [2]: increased membrane permeability in a concentration-dependent manner; intracellular β,β-Dim accumulation [3]: approximately 60 ng per 10^8 CFUs

Question: Which “reduction of colistin MIC” value [4] does the source give for colistin here?
Answer: 4–64 fold

Question: What about the survival rate ([5]; day 5 post-infection, single i.p. β,β-Dim 2 mg/kg, colistin 0.2 mg/kg) of the same compound?
Answer: 20%

Question: What about the “histopathological analysis (tissue damage)” value ([5]; heart, liver, spleen, lung, kidney) of the same compound?
Answer: partially alleviated these lesions
